Measurements from patent US20250152584A1, “NLRP3 INFLAMMASOME INHIBITOR AND USES THEREOF” (TransThera Sciences (Nanjing), Inc., priority 2022, published 2025).

Key:
[1] = Pharmacokinetic study in SD male rats; assay type: in vivo; conditions: rat, plasma; for clearance: read-out: Cl—obs iv (clearance rate) (converted); for Vd: read-out: Vss iv (volume of distribution); for bioavailability: iv 1.0 mg/kg / po 5.0 mg/kg, read-out: F % (absolute bioavailability); for Tmax: median, read-out: Tmax po (peak time of plasma concentration); for Cmax: read-out: Cmax po (peak concentration)
Procedure: Experimental Example 3: Pharmacokinetic Study of Compounds in SD Male Rats
Compound 54, Compound 55, Compound 174, Compound 173, and Compound 264 were prepared into solutions with a mixed solvent formulated from 5% dimethyl sulfoxide, 20% (30% solutol) and 75% normal saline, respectively; the solution of each compound was administered to SD male rats by gavage at a dose of 5.0 mg/kg; and the time points for blood collection were: 15 min, 30 min, 1 h, 2 h, 4 h, 6 h, 8 h, 10 h and 24 h. The solution of the compound was administered to male SD rats by intravenous bolus at a dose of 1.0 mg/kg, and the time points for blood collection were as follows: 5 min, 15 min, 30 min, 1 h, 2 h, 4 h, 6 h, 8 h, 10 h, and 24 h.
On the day before administration, the jugular vein of each animal was cannulated; and after administration, about 300 μL of blood was collected through the jugular vein, and then placed in an anticoagulant tube containing EDTA-K2. Blood samples were centrifuged at 12,000 rpm for 10 min at 4° C. to obtain plasma samples, and plasma was prepared within 30 min after blood collection. The plasma was stored in a −80° C. freezer before testing.
• 1. The samples were taken from the −80° C. freezer, thawed naturally at room temperature, and then vortexed for 5 min. • 2. 30 μL of a plasma sample was precisely pipetted into a 1.5 mL centrifuge tube. • 3. 750 μL of an internal standard working solution (the acetonitrile solution of tolbutamide) at a concentration of […] was added and mixed well. • 4. After vortexing for 5 min, the mixture was centrifuged at 12,000 rpm for 5 min. • 5. 50 μL of the supernatant was accurately pipetted into a 96-well plate preloaded with water at 150 μL/well. • 6. Vortexing was performed for 5 min for sufficient mixing, and LC-MS/MS analysis was then conducted.
(§1) The results of the concentrations of the compounds under test were output using Analyst 1.6.3 of AB. Parameters such as mean, standard deviation, coefficient of variation was calculated by Microsoft Excel (parameters directly output by Analyst 1.6.3 needed no calculation), and PK parameters were calculated by WinNonlin Phenoix 8.2 software NCA (Tmax as the median).

[2] = Pharmacokinetic study in C57BL/6J mice; assay type: in vivo; conditions: mouse, plasma, C57BL/6J female mice; for Tmax: median, read-out: Tmax po (peak time of plasma concentration); for Cmax: read-out: Cmax po (peak concentration); for clearance: read-out: Cl—obs iv (clearance rate) (converted); for Vd: read-out: Vss iv (volume of distribution); for bioavailability: iv 5 mg/kg / po 10 mg/kg, read-out: F % (absolute bioavailability)
Procedure: Experimental Example 2: Pharmacokinetic Study of Compounds in C57BL/6J Mice
Compound 100, Compound 54, Compound 174, Compound 179, and Compound 253 were prepared into solutions with a mixed solvent formulated from 5% dimethyl sulfoxide, 20% (30% solutol) and 75% normal saline, respectively; the solution of each compound was administered to C57BL/6J female mice by gavage at a dose of 10 mg/kg; and the time points for blood collection were: 15 min, 30 min, 1 h, 2 h, 4 h, 6 h, 8 h and 24 h. The solution of the compound was administered to C57BL/6J female mice by intravenous bolus at a dose of 5 mg/kg, and the time points for blood collection were as follows: 5 min, 15 min, 30 min, 1 h, 2 h, 4 h, 6 h, 8 h, and 24 h.
Compound 1 was prepared into a solution with a mixed solvent formulated from 5% DME, 20% (30% solutol) and 75% normal saline; the solution of this compound was administered to C57BL/6J female mice by gavage at a dose of 10 mg/kg, and the time points for blood collection were: 15 min, 30 min, 1 h, 2 h, 4 h, 6 h, 8 h, and 24 h. The solution of the compound was administered to C57BL/6J female mice by intravenous bolus at a dose of 5 mg/kg, and the time points for blood collection were as follows: 5 min, 15 min, 30 min, 1 h, 2 h, 4 h, 6 h, 8 h, and 24 h.
Compound 195 was prepared into a solution with a mixed solvent formulated from 5% dimethyl sulfoxide, 20% PEG400 and 75% normal saline; the solution of this compound was administered to C57BL/6J female mice by gavage at a dose of 10 mg/kg; and the time points for blood collection were 15 min, 30 min, 1 h, 2 h, 4 h, 6 h, 8 h, and 24 b. The solution of the compound was administered to C57BL/6J female mice by intravenous bolus at a dose of 5 mg/kg, and the time points for blood collection were as follows: 5 min, 15 min, 30 min, 1 h, 2 b, 4 h, 6 h, 8 h, and 24 h.
Approximately 100 μL of blood was collected through the retroorbital venous plexus, and was then placed in an anticoagulant tube containing EDTA-K2. Blood samples were centrifuged at 12,000 rpm for 10 min at 4° C. to obtain plasma samples, and plasma was prepared within 30 min after blood collection. The plasma was stored in a −80° C. freezer before testing.
• 1. The samples were taken from the −80° C. freezer, thawed naturally at room temperature, and then vortexed for 5 min • 2. 10 μL of a plasma sample was precisely pipetted from different individuals into a 1.5 mL centrifuge tube. • 3. 300 μL of an internal standard working solution (the acetonitrile solution of tolbutamide) at a concentration of […] was added and mixed well. • 4. After vortexing for 5 min, the mixture was centrifuged at 12,000 rpm for 5 min. • 5. 50 μL of the supernatant was accurately pipetted into a 96-well plate preloaded with water at 150 μL/well. • 6. Vortexing was performed for 5 min for sufficient mixing, and LC-MS/MS analysis was then conducted.
as §1

[3] = intravenous bolus 1.0 mg/kg, read-out: AUClast iv (area under the drug-time curve for 0-24 h)
[4] = intravenous bolus 1.0 mg/kg, read-out: tz1/2 iv (terminal elimination half-life) (converted)
[5] = po, gavage 5.0 mg/kg, read-out: AUClast po (area under the drug-time curve for 0-24 h)
[6] = po, gavage 5.0 mg/kg, read-out: tz1/2 po (terminal elimination half-life) (converted)
[7] = po, gavage 10 mg/kg, read-out: AUClast po (area under the drug-time curve for 0-24 h)
[8] = po, gavage 10 mg/kg, read-out: tz1/2 po (terminal elimination half-life) (converted)
[9] = intravenous bolus 5 mg/kg, read-out: AUClast iv (area under the drug-time curve for 0-24 h)
[10] = intravenous bolus 5 mg/kg, read-out: tz1/2 iv (terminal elimination half-life) (converted)

Compound	AUC(0-t) [1, 3] [ng·h/mL]	clearance ([1]; intravenous bolus 1.0 mg/kg) [mL/min/kg]	Vd ([1]; intravenous bolus 1.0 mg/kg) [L/kg]	half-life [1, 4] [h]	bioavailability [1] [%]	Tmax ([1]; po, gavage 5.0 mg/kg) [h]	AUC(0-t) [1, 5] [ng·h/mL]	Cmax ([1]; po, gavage 5.0 mg/kg) [ng/mL]	half-life [1, 6] [h]	Tmax ([2]; po, gavage 10 mg/kg) [h]	AUC(0-t) [2, 7] [ng·h/mL]	Cmax ([2]; po, gavage 10 mg/kg) [ng/mL]	half-life [2, 8] [h]	AUC(0-t) [2, 9] [ng·h/mL]	clearance ([2]; intravenous bolus 5 mg/kg) [mL/min/kg]	Vd ([2]; intravenous bolus 5 mg/kg) [L/kg]	half-life [2, 10] [h]	bioavailability [2] [%]
C#Cc1ccc(-c2nnc(N[C@@H]3CCCN(C)C3)cc2C)c(O)c1 [Compound 54, (R)-5-ethynyl-2-(4-methyl-6-((1-methylpiperidin-3-yl)amino)pyridazin-3-yl)phenol]	749	20.2	5.01	2.97	93.1	1	3790	442	3.94	1	4130	820	3.04	2400	30.5	6.59	2.97	75.6
CC#Cc1ccc(-c2nnc(N[C@@H]3CCCN(C)C3)cc2C)c(O)c1 [Compound 174, (R)-2-(4-methyl-6-((1-methylpiperidin-3-yl)amino)pyridazin-3-yl)-5-(prop-1-yn-1-yl)phenol]	813	18.2	4.82	3.6	97	2	4430	465	3.51	0.5	20100	3160	3.82	8610	9.57	2.64	3.95	116
